Data published in ChEMBL document CHEMBL6127107, “Oleanolic acid derivatives against drug-resistant bacteria and fungi by multi-targets to avoid drug resistance” (Eur J Med Chem, 2024).
In brackets after ≈: the same amount, converted by molar mass. Activity calls are given as the source filed them. The calls are words filed in the database; no cut-off is given here.

Assays:
Staphylococcus aureus [1] = test: Drug resistance, ratio of MIC for methicillin-resistant Staphylococcus aureus measured after 20 days of continuous passage to MIC for methicillin-resistant Staphylococcus aureus measured after first exposure; format: functional
HEK-293T = test: Cytotoxicity against HEK293T cells at 64 microg/ml by MTT assay; format: toxicity, cell-based; conditions: human, dose 64 µg/ml
Staphylococcus aureus [2] = test: Antibiofilm activity against methicillin-resistant Staphylococcus aureus assessed as inhibition of biofilm formation at 2 times of MIC by crystal violet staining based analysis relative to control; format: functional
Staphylococcus aureus [3] = test: Synergistic antibacterial activity against methicillin-resistant Staphylococcus aureus assessed as fractional inhibitory concentration index in presence of chlorpromazine; format: functional
Staphylococcus aureus [4] = test: Antibacterial activity against methicillin-resistant Staphylococcus aureus at sub-MIC measured after 20 days of continuous passage; format: functional, organism-based; conditions: time 20.0 day
DNA [5] = test: Binding affinity to methicillin-resistant Staphylococcus aureus DNA minor groove assessed as decrease in fluorescence by DAPI staining based analysis; format: nucleic-acid assay
DNA [6] = test: Binding affinity to methicillin-resistant Staphylococcus aureus DNA assessed as effect on helical structure by measuring change in positive and negative peaks at 10 to 40 microg/ml by CD spectra; format: nucleic-acid assay; conditions: dose 10-40 µg/ml
Staphylococcus aureus [7] = test: Antimicrobial activity against methicillin-resistant Staphylococcus aureus in presence of phosphatidylethanolamine; format: functional, organism-based
Cell membrane [8] = test: Disruption of cell membrane integrity in methicillin-resistant Staphylococcus aureus assessed as nucleic acid leakage by absorbance based analysis; format: subcellular
Cell membrane [9] = test: Disruption of cell membrane integrity in Candida albicans; format: subcellular
Staphylococcus aureus [10] = test: Synergistic antibacterial activity against methicillin-resistant Staphylococcus aureus assessed as fractional inhibitory concentration index in presence of lincomycin hydrochloride; format: functional
Cell membrane [11] = test: Disruption of cell membrane integrity in methicillin-resistant Staphylococcus aureus assessed as increase in ROS level at 2 to 8 times of MIC incubated for 1 hrs; format: subcellular
Staphylococcus aureus [12] = test: Antimicrobial activity against Staphylococcus aureus 10; format: functional
Staphylococcus aureus [13] = test: Synergistic antibacterial activity against methicillin-resistant Staphylococcus aureus assessed as fractional inhibitory concentration index in presence of fluconazole; format: functional
Mitochondrial membrane = test: Induction of mitochondrial membrane depolarization in methicillin-resistant Staphylococcus aureus assessed as increase in fluorescence intensity at 1 to 8 times of MIC by DiSC3(5) staining based analysis; format: cell membranes
Staphylococcus aureus [14] = test: Antimicrobial activity against Staphylococcus aureus 29; format: functional
Staphylococcus aureus [15] = test: Antibiofilm activity against methicillin-resistant Staphylococcus aureus assessed as decrease in biofilm biomass at 1 to 8 times of MIC by crystal violet staining based analysis; format: functional, organism-based
Staphylococcus aureus [16] = test: Antimicrobial activity against methicillin-resistant Staphylococcus aureus 003; format: functional
DNA [17] = test: Binding affinity to methicillin-resistant Staphylococcus aureus DNA assessed as decrease in fluorescence by PI staining based analysis; format: nucleic-acid assay
Staphylococcus aureus [18] = test: Synergistic antibacterial activity against methicillin-resistant Staphylococcus aureus assessed as fractional inhibitory concentration index in presence of ampicillin; format: functional
Candida albicans = test: Antimicrobial activity against fluconazole-resistant Candida albicans; format: functional
Staphylococcus aureus [19] = test: Antibacterial activity against methicillin-resistant Staphylococcus aureus in presence of DNA; format: functional, organism-based
DNA [20] = test: Binding affinity to […] methicillin-resistant Staphylococcus aureus DNA assessed as inhibition of DNA migration by electrophoretic analysis; format: nucleic-acid assay
Staphylococcus aureus [21] = test: Antimicrobial activity against methicillin-resistant Staphylococcus aureus 011; format: functional
DNA [22] = test: Binding affinity to methicillin-resistant Staphylococcus aureus DNA assessed as change in DNA conformation by UV absorption based analysis; format: nucleic-acid assay
Enterococcus faecalis = test: Antimicrobial activity against vancomycin resistant Enterococcus faecalis ATCC 51299; format: functional
Pseudomonas aeruginosa = test: Antimicrobial activity against Pseudomonas aeruginosa; format: functional
[23] = Selectivity index, ratio of HC50 for hemolytic activity against Mianyang red blood cells (unknown origin) to MIC for antimicrobial activity against methicillin resistant Staphylococcus aureus 003; format: toxicity, cell-based, RBC; conditions: read-out: Selectivity Index
Staphylococcus aureus [24] = test: Synergistic antibacterial activity against methicillin-resistant Staphylococcus aureus assessed as fractional inhibitory concentration index in presence of vancomycin; format: functional
DNA [25] = test: Binding affinity to methicillin-resistant Staphylococcus aureus DNA assessed as inhibition of DNA migration at 75 microg/ml by electrophoretic analysis; format: nucleic-acid assay; conditions: dose 75.0 µg/ml
Escherichia coli = test: Antimicrobial activity against Escherichia coli; format: functional
Staphylococcus aureus [26] = test: Antibiofilm activity against methicillin-resistant Staphylococcus aureus assessed as reduction in number of live cells at 8 times of MIC (reference value: 7.79 log10CFU/ml); format: functional
Staphylococcus aureus [27] = test: Synergistic antibacterial activity against methicillin-resistant Staphylococcus aureus assessed as fractional inhibitory concentration index in presence of chloramphenicol; format: functional
Staphylococcus aureus [28] = test: Antimicrobial activity against methicillin-resistant Staphylococcus aureus in presence of peptidoglycan; format: functional, organism-based
Staphylococcus aureus [29] = test: Antibacterial activity against methicillin-resistant Staphylococcus aureus assessed as inhibition of bacterial growth at 1 times of MIC; format: functional, organism-based
Staphylococcus aureus [30] = test: Synergistic antibacterial activity against methicillin-resistant Staphylococcus aureus assessed as fractional inhibitory concentration index in presence of azithromycin; format: functional
Staphylococcus aureus [31] = test: Bactericidal activity against methicillin-resistant Staphylococcus aureus assessed as eradication of bacterial growth at 4 times of MIC measured within 6 hrs relative to control; format: functional
Staphylococcus aureus [32] = test: Antibiofilm activity against methicillin-resistant Staphylococcus aureus assessed as decrease in biofilm density at 1 to 8 times of MIC incubated for 24 hrs by fluorescence microscopic analysis; format: functional, organism-based
Staphylococcus aureus [33] = test: Synergistic antibacterial activity against methicillin-resistant Staphylococcus aureus assessed as fractional inhibitory concentration index in presence of cefoxitin; format: functional
Staphylococcus aureus [34] = test: Selectivity ratio of MBEC for methicillin-resistant Staphylococcus aureus to MIC for methicillin resistant Staphylococcus aureus; format: functional
Cell membrane [35] = test: Disruption of cell membrane integrity in methicillin-resistant Staphylococcus aureus assessed as increase in PI fluorescence at 2 to 8 times of MIC by PI staining based fluorescence analysis; format: subcellular
Staphylococcus aureus [36] = test: Bactericidal activity against methicillin-resistant Staphylococcus aureus; format: functional, organism-based
Staphylococcus aureus [37] = test: Antimicrobial activity against methicillin-resistant Staphylococcus aureus in presence of cardiolipin; format: functional, organism-based
Cell membrane [38] = test: Disruption of cell membrane integrity in methicillin-resistant Staphylococcus aureus assessed as cell rupture at 2 to 4 times of MIC by scanning electron microscopic analysis; format: subcellular
Staphylococcus aureus [39] = test: Synergistic antibacterial activity against methicillin-resistant Staphylococcus aureus assessed as fractional inhibitory concentration index in presence of streptomycin; format: functional
[40] = Hemolytic activity against Mianyang red blood cells (unknown origin); format: toxicity, cell-based, RBC
Cell membrane [41] = test: Disruption of cell membrane integrity in methicillin-resistant Staphylococcus aureus assessed as cell deformation at 2 to 4 times of MIC by scanning electron microscopic analysis; format: subcellular
Staphylococcus aureus [42] = test: Antimicrobial activity against Staphylococcus aureus 31; format: functional
Staphylococcus aureus [43] = test: Synergistic antibacterial activity against methicillin-resistant Staphylococcus aureus assessed as fractional inhibitory concentration index in presence of ceftriaxone; format: functional
Staphylococcus aureus [44] = test: Antibacterial activity against methicillin-resistant Staphylococcus aureus infected in cyclophosphamide-injected Kunming mouse model of skin wound infection assessed as reduction in bacterial load in skin at 4 mg/kg measured after 7 days; format: functional; conditions: time 7 day
Staphylococcus aureus [45] = test: Antibacterial activity against methicillin-resistant Staphylococcus aureus infected in cyclophosphamide-injected Kunming mouse model of skin wound infection assessed as wound repair by measuring reduction in wound area at 4 mg/kg measured for 7 days by photographic analysis; format: functional, organism-based; conditions: time 7.0 day

For `CCn1cc(C(=O)O)c(=O)c2cc(F)c(N3CCNCC3)cc21` [NORFLOXACIN], the Ratio (Staphylococcus aureus [1]) was 32.
For `CC1(C)CC[C@]2(C(=O)O)CC[C@]3(C)C(=CC[C@@H]4[C@@]5(C)CC[C@H](OCC(O)CCCNC(=N)N)C(C)(C)[C@@H]5CC[C@]43C)[C@@H]2C1` (stereo partly drawn), the Activity (HEK-293T) was “Non-Toxic”, the “inhibition (INH)” value (Staphylococcus aureus [2]) was over 80% and the “fractional inhibitory concentration index (FICI)” value (Staphylococcus aureus [3]) was “<=0.5”. The Activity (Staphylococcus aureus [4]) was “Active”, the Activity (DNA [5]) was “inactive” and the Activity (DNA [6]) was “Active”. For the same compound, the Activity (Staphylococcus aureus [7]) was “inactive”, the Activity (Cell membrane [8]) was “Active” and the Activity (Cell membrane [9]) was “Active”. For the same compound, the “fractional inhibitory concentration index (FICI)” value (Staphylococcus aureus [10]) was “<=0.5”, the Activity (Cell membrane [11]) was “Active” and the MIC (Staphylococcus aureus [12]) was 2 µg/mL (≈ 3.33 µM). For the same compound, the “fractional inhibitory concentration index (FICI)” value (Staphylococcus aureus [13]) was “<=0.5”, the Activity (Mitochondrial membrane) was “Dose-Dependent Effect” and the MIC (Staphylococcus aureus [14]) was 4 µg/mL (≈ 6.67 µM). For the same compound, the Activity (Staphylococcus aureus [15]) was “Active”, the MIC (Staphylococcus aureus [16]) was over 2 µg/mL and the Activity (DNA [17]) was “Dose-Dependent Effect”. The “fractional inhibitory concentration index (FICI)” value (Staphylococcus aureus [18]) was “<=0.5”, the MIC (Candida albicans) was 2 µg/mL (≈ 3.33 µM) and the Activity (Staphylococcus aureus [19]) was “inactive”. For the same compound, the Activity (DNA [20]) was “Active”, the MIC (Staphylococcus aureus [21]) was 2 µg/mL (≈ 3.33 µM) and the Activity (DNA [22]) was “Active”. It also gave an MIC (Enterococcus faecalis) of 2 µg/mL (≈ 3.33 µM), an MIC (Pseudomonas aeruginosa) of over 64 µg/mL and a selectivity ratio [23] of under 390. The “fractional inhibitory concentration index (FICI)” value (Staphylococcus aureus [24]) was “<=0.5”, the Activity (DNA [25]) was “Active” and the MIC (Escherichia coli) was over 64 µg/mL. The Activity (Staphylococcus aureus [26]) was 2.7 log10CFU/ml, the “fractional inhibitory concentration index (FICI)” value (Staphylococcus aureus [27]) was “<=0.5” and the Activity (Staphylococcus aureus [28]) was “Active”. For the same compound, the Activity (Staphylococcus aureus [29]) was “Active”, the “fractional inhibitory concentration index (FICI)” value (Staphylococcus aureus [30]) was “<=0.5” and the Activity (Staphylococcus aureus [31]) was 99.99%. The Activity (Staphylococcus aureus [32]) was “Dose-Dependent Effect”, the “fractional inhibitory concentration index (FICI)” value (Staphylococcus aureus [33]) was “<=0.5” and the selectivity ratio (Staphylococcus aureus [34]) was 16. For the same compound, the Activity (Cell membrane [35]) was “Active”, the Activity (Staphylococcus aureus [36]) was “Active” and the Activity (Staphylococcus aureus [37]) was “inactive”. The Activity (Cell membrane [38]) was “Active”, the “fractional inhibitory concentration index (FICI)” value (Staphylococcus aureus [39]) was 0.25 and the HC50 [40] was 779 µg/mL. For the same compound, the Activity (Cell membrane [41]) was “Active”, the MIC (Staphylococcus aureus [42]) was 2 µg/mL (≈ 3.33 µM) and the “fractional inhibitory concentration index (FICI)” value (Staphylococcus aureus [43]) was “<=0.5”.
With `CN[C@H](CC(C)C)C(=O)N[C@H]1C(=O)N[C@@H](CC(N)=O)C(=O)N[C@H]2C(=O)N[C@H]3C(=O)N[C@H](C(=O)N[C@H](C(=O)O)c4cc(O)cc(O)c4-c4cc3ccc4O)[C@H](O)c3ccc(c(Cl)c3)Oc3cc2cc(c3O[C@@H]2O[C@H](CO)[C@@H](O)[C@H](O)[C@H]2O[C@H]2C[C@](C)(N)[C@H](O)[C@H](C)O2)Oc2ccc(cc2Cl)[C@H]1O` [VANCOMYCIN] the Activity (Staphylococcus aureus [44]) was 0.9 log10CFU/mg, the MIC (Enterococcus faecalis) was 2 µg/mL (≈ 1.38 µM) and the Activity (Staphylococcus aureus [45]) was “Active”. It also gave an HC50 [40] of over 256 µg/mL.
